System: Bovine chondrocytes
Experiment: Viability of isolated chondrocytes suspended 12 hrs at 37° C. in various solutions (membrane integrity dyes)
Format: cell-based
Conditions: bupivacaine 1.25 mg/mL [0.125%]
Description: FIG. 7: Bovine chondrocytes suspended for 12 hrs. at 37° C. in various solutions of phosphate buffered saline (PBS), bupivacaine (1.25 mg/mL [0.125%]), arthroguard and saline. In these experiments, 2.5 mg/mL [0.25%] bupivacaine was combined with arthroguard to yield a final concentration of 1.25 mg/mL [0.125%] bupivacaine in arthroguard. for 12 hrs. Cell viability is assessed by membrane integrity dyes.

## CCCCN1CCCCC1C(=O)Nc1c(C)cccc1C (stereo not shown) [bupivicaine, bupivacaine]
  amount of cell death of isolated chondrocytes exposed to bupivicaine: increases the amount of cell death
